Source: patent US12569563B2, “Selective HDAC6 degraders and methods of use thereof” (DANA-FARBER CANCER INSTITUTE, INC., priority 2019, dated 2026)

Columns and labels:
[1] = molecular target: T1, CRBN (Homo sapiens, UniProt Q96SW2); assay: Cellular CRBN engagement assay (competition with dBET6, BRD4BD2-eGFP reporter); type: cell-based; settings: Flip-In 293 BRD4BD2-eGFP cells, 100 nM dBET6, 5 h
T1 construct: endogenous in cells; host or cells: Flp-In 293 cells stably expressing BRD4BD2-eGFP-P2A-mCherry
Text: The cellular CRBN engagement assay measures the cellular binding affinity which is the combination of the compound's cell permeability and their binding affinity to CRBN. This is done by measuring the ability of thalidomide-based degrader molecules to compete with pan-BET bromodomain degrader dBET6 (Nowak et al., Nat. Chem. Biol. 14:706-714 (2018)) for CRBN binding in cells. If no degrader compound is present in the cell, BRD4BRD2-eGFP is degraded by dBET6 via the proteasome system. […]
Cells were seeded at 30-50% confluency in either 24, 48 or 96 well plates (3524, 3548, 3596 respectively, Costar) a day before compound treatment. The inventive compounds were titrated in the presence of 100 nM dBET6 and then were incubated with cells for 5 h following trypsinization and resuspension in DMEM media, transferred into 96-well plates (353910, Falcon®) and analyzed by flow cytometer (Guava® easyCyte™ HT, Millipore®). Signal from at least 3000 events per well was acquired and the eGFP and mCherry florescence monitored. Data was analyzed using FlowJo® (FlowJo®, LCC). Forward and side scatter outliers, frequently associated with cell debris, were removed leaving >90% of total cells, followed by removal of eGFP and mCherry signal outliers, leaving 88-90% of total cells creating the set used for quantification. […]

[2] = molecular target: T2, HDAC10 (Homo sapiens, UniProt Q969S8); assay: HDAC assay from Reaction Biology, fluorogenic substrate; type: biochemical; settings: 10-dose response curve; read-out: Compound IC50 HDAC10
T2 construct: purchased Reaction Biology
T2 sequence (Q969S8 1-669): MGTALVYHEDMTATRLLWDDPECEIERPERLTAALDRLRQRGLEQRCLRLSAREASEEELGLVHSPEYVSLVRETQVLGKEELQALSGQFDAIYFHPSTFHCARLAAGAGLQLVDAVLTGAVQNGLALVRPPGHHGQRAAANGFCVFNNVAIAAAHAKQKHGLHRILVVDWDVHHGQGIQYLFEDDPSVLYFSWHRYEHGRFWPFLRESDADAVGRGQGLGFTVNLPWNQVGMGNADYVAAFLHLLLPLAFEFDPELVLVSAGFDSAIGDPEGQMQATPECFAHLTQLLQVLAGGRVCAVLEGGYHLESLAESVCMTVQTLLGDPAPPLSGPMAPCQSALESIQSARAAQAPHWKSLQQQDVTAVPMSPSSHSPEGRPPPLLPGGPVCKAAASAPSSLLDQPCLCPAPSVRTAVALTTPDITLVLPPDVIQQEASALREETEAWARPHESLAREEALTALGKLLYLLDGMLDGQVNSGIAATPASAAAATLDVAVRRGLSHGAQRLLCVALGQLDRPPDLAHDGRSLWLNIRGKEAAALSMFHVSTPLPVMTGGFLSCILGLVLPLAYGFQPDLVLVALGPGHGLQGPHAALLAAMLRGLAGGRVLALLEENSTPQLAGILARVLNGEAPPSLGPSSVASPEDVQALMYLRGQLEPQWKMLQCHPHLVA
Description: Compounds 1 and 3 were tested in a HDAC assay from Reaction Biology® against 10 different HDACs.
Base Reaction buffer: 50 mM Tris-HCl, pH8.0, 137 mM NaCl, 2.7 mM KCl, and 1 mM MgCl2,
Add fresh: 1 mg/ml BSA, 1% DMSO
Fluorogenic HDAC General Substrate (HDAC1, HDAC2, HDAC3, HDAC6, HDAC10, and HDAC11): 50 μM, Arg-His-Lys-Lys(Ac)-AMC
• (HDAC8 only substrate: 50 μM, Arg-His-Lys(Ac)-Lys(Ac))-AMC Class2A Substrate (HDAC4, HDAC5, HDAC7, and HDAC9): Boc-Lys(trifluoroacetyl)-AMC For SIRTs 1-3, general Class1 HDAC substrate and 500 μM NAD+ For SIRT5, Ac-Lys-succ and 500 μM NAD+ Reaction Procedure Deacetylation Step • 1. Delivered 2× enzyme in wells of reaction plate except in the control wells and added buffer to control wells. • 2. Delivered compounds in 100% DMSO into the enzyme mixture by Acoustic technology (Echo550; nanoliter range). Spin down and pre-incubation. • 3. Delivered 2× Substrate Mixture (Fluorogenic HDAC Substrate and co-factor if applicable) in all reaction wells to initiate the reaction. Spin and shake. • 4. Incubated for 30 min for Class 2A, 1 hr for HDAC1, 2, 3, and 6, and 2 hr for the rest of HDACs and SIRTs at 30° C. with seal. Development Step • 5. Added Developer with Trichostatin A (or Nicotinamide for SIRTs) to stop the reaction and to generate fluorescent color. • 6. The fluorescence that was generated was detected with excitation (Ex) at […] and emission (Em) at 460 nM by the EnVision Multilabel Plate Reader (PerkinElmer®, Santa Clara, CA, USA). • 7. IC50 values, presented in Table 1, were derived from a 10-dose response curve.

CN(C(=O)CCCCCCCNc1cccc2c1C(=O)N(C1CCC(=O)NC1=O)C2=O)c1ccc(NC(=O)CCCCCCC(=O)NO)cc1 (centres unmarked) [Compound 3, N^1-(4-(8-((2-(2,6-dioxopiperidin-3-yl)-1,3-dioxoisoindolin-4-yl)amino)-N-methyloctanamido)phenyl)-N^8-hydroxyoctanediamide]
IC50 [1]: 1.63 µM | IC50 [2]: 6.58 µM
